Measured values reported in patent US7973024B2, “24-sulfoximine vitamin D3 compounds” (Cyctochroma Inc., priority 2002, dated 2011).

What was measured:
Assay type in all cases: cell-based
[1] = biological target: T1, CYP24 (Homo sapiens, UniProt Q07973); assay: In vitro test of ability to inhibit specifically CYP24 (standard protocol); conditions: ketoconazole as control standard
T1 construct: expressed in transfected cells
T1 sequence (Q07973 36-514): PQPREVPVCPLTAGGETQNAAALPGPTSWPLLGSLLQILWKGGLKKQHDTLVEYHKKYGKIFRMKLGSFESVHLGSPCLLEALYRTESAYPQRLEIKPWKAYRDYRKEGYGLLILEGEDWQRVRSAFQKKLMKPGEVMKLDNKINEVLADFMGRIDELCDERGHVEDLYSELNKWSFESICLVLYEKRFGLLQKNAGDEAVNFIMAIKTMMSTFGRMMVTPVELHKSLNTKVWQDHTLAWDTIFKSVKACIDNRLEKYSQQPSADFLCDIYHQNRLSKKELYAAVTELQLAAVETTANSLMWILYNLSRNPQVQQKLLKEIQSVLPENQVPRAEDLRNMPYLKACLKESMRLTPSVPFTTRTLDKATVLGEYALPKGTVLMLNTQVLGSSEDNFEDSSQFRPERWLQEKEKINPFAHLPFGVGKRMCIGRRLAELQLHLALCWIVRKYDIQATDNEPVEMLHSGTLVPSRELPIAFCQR

[2] = biological target: T1, CYP24; assay: CYP24 enzyme assay (stable cell line V79-CYP24 cells); conditions: [3H-1β]-1α,25(OH)2D3 20 nM, 2 hours
Experimental: 1. Preparation of Cell Suspension • On the day of the assay, washed the monolayer of V79-CYP24 cells once with 1×PBS buffer and then trypsinize for 5 min at room temperature (approx. 22° C.). Added 1×PBS. Collected cells into tube, centrifuged cells (500×g, 5 min) and resuspended in DMEM+1% BSA media.
2. Cell Plating • Added 150 μl of cell suspension to appropriately labelled wells of a 48-well plate. Incubated plate for 30 minutes at 37° C. in a humidified atmosphere containing 5% CO2 for adherence of cells to wells.
3. Compound Addition • Added 25 μl of inhibitor (10^−6 to 10^−9 M) and then after 10 min added 25 μl of substrate [^3H-1β]-1α,25(OH)2D3 (20 nM) for 2 hours at 37° C. in a humidified atmosphere containing 5% CO2. Both inhibitor and substrate were prepared in DMEM with 1% BSA media in the absence and presence of 100 μM DPPD.
4. Lipid Extraction and Counting • Added 500 μL of methanol to stop the reaction. Transferred to tube. Added 250 μl of dichloromethane and vortexed. Added 250 μl of dichloromethane and 250 μl of saturated KCL and vortexed. Centrifuged at 4000 rpm for 5 min. Triplicate 100 μl aliquots of aqueous fraction were mixed with 600 μl of scintillation fluid and the radioactivity was measured using a scintillation counter. All values were normalized for background. (iii) Results.

[3] = biological target: T1, CYP24; assay: CYP24 enzyme assay (induced HPK1A-ras cells); conditions: HPK1A-ras cells induced with 1,25(OH)2D3; [3H]-1,25(OH)2D3 substrate, 2 hour
Experimental: 1.25(OH)2D3 10^−5 M (Sigma, St. Louis, Mo.);
Preparation of 10^−5 M working solution is as follows:
Dissolve 1 mg of 1,25(OH)2D3 into 480 μl of isopropanol to make 5×10^−3 M stock solution. Store at −70° C. until needed. Aliquot 1 μl of 1.25(OH)2D3 5×10^−3 M stock solution to 499 μl of isopropanol to make 1.25(OH)2D3 10^−5 working solution. Store at −20° C. until needed. […] Induction of HPKIA-ras cells (The day before assay) • When the HPK1A-ras cells were 80-90% confluent, added 1 μL 10^−5 M 1.25(OH)2D3 to 1 mL medium in the plate (final concentration is 10^−8 M). • 2. Preparation of cell suspension • After 18 to 20 hours induction, removed the medium and washed the cell twice with PBS. Then tripsinized the cells from plate, centrifuged (2,000 rpm, 5 min) and suspended cells pellet in DMEM medium+1% BSA. • Counted the cells and adjusted cells density to 250,000/150 μL, added 150 μL cell suspension to each well in 48-well plate (including 3 wells as a no cell control, and 3 well cells without drug or inhibitor as controls). • 3. […] Kept the plate in 37° C. for 10 min. • 4. Preparation of substrate • For each ml required, added 972 μl of DMEM+1% BSA medium, 20 μl of 3H-1,25(OH)2D3, and 8 μl of 100 nM DPPD to a tube and vortexed. • 5. Incubation • Added 25 μL substrate to each well, incubated the plate at 37° C. for 2 hour. • Added 25 μL substrate to counting plate (2 well) as a total count. • 6. Lipid Extraction and Counting • Added 500 μL methanol to each well to stop the reaction, transferred them to tube. • Added 250 μL dichloromethane and vortex. • Added 250 μL dichloromethane and […] saturated KCI, and vortex. • Centrifuged at 4000 rpm for 5 min. • Transferred 100 μL of aqueous phase (upper phase) to counting plastic counting plate. Added 600 μL of scintillation fluid to each well. Counted the plate in scintillation counter. • 7. Calculation Enzyme Activity • CPM of cell control after subtraction of CPM of non-cell control (NCC) was as 100% enzyme activity.
• Dilution of test compounds • Stock 10^−3 M

[4] = tested on: MCF-7 cells; assay: [3H]-thymidine proliferation assay with MCF-7 cells; conditions: together with calcitriol, three days, [3H]-thymidine 6 h
Experimental: 1. Preparation of Cell Suspension • When MCF-7 cells were 70-80% confluent, aspirated growth media. Washed the cells with 1×PBS. Trypsinized with trypsin-EDTA from the plate, collected cells from the tissue culture flask, centrifuged (500×g, 5 min) and resuspended in growth media.
2. Cell Plating. • Counted the cells and adjusted the cell density to 25,000/ml. Added 200 μl per well in a 96 well plate. Incubated plate for 24 h at 37° C. in a humidified atmosphere plus 5% CO2. Aspirated used media and replaced with 150 μl per well with proliferation media.
3. Substrate Addition. • Added 25 μl of 1α,25(OH)2D3 (final concentration 10^−6 M, 10^−7 M, 10^−8 M, 10^−9 M, 10^−10 M, 10^−11 M) into each designated well. Added 25 μl of substrate (final concentration 10^−7 M, 5×10^−8 M, 10^−8 M or 10^−9 M) into each designated well. Incubated plates for 3 days at 37° C. in a humidified atmosphere plus 5% CO2.
4. ^3H-Thymidine incorporation. • Added ^3H-thymidine at 0.02 μCi per well and incubated at 37° C. in a humidified atmosphere plus 5% CO2 for 6 h.
5. Plate Harvesting. • Aspirated all media and washed cells with 1×PBS. Trypsinized cells for 30 min at 37° C. in a humidified atmosphere plus 5% CO2. Harvested cells onto a 96 well filter plate (Millipore) using a Tomtec Cell Harvestor, according to manufacturers instructions.
6. Scintillation Counting. • Added 25 μl of scintillation fluid per well. Counted the plate using a scintillation counter.

| selective inhibition of CYP24 [1] | IC50 [2] [nM] | IC50 [3] [nM] | Structure (SMILES) | inhibition of proliferation of MCF-7 cells [4] |
| --- | --- | --- | --- | --- |
| selectively inhibit | 29 | 66 | C=C1/C(=C\C=C2/CCC[C@]3(C)[C@@H]([C@H](C)CCS(=O)(=NC)c4ccccc4)CC[C@@H]23)C[C@@H](O)C[C@@H]1O (single isomer, unassigned) [I(e)] | act to inhibit the proliferation |
| selectively inhibit | 8.5 | – | C[C@H](CCS(=N)(=O)c1ccccc1)[C@H]1CC[C@H]2/C(=C/C=C3C[C@@H](O)C[C@H](O)C3)CCC[C@]12C (single isomer, unassigned) [I(i), 24-Phenyl Sulfoximine 19-Nor-Vitamin-D3] | act to inhibit the proliferation |
| selectively inhibit | 26 | 20 | C=C1/C(=C\C=C2/CCC[C@]3(C)[C@@H]([C@H](C)CCS(=O)(=NC)c4ccccc4)CC[C@@H]23)C[C@@H](O)C[C@@H]1O (single isomer, unassigned) [I(g)] | act to inhibit the proliferation |
| – | 4 | 5 | C=C1/C(=C\C=C2/CCC[C@]3(C)[C@@H]([C@H](C)CCS(=N)(=O)c4ccccc4)CC[C@@H]23)C[C@@H](O)C[C@@H]1O (single isomer, unassigned) [I(a)] | act to inhibit the proliferation |
